Values of other authors, collected in patent US20160310431A1, “Three-Phase System for Modified Release of a Non-Steroidal Antiinflammatory” (priority 2013, published 2016).
Where two headings read alike, the source gives them in different places.

Experiments:
[1] = intramuscular administration
[2] = not given; remark: listed apart in the source
COX-1 and COX-2 = conditions: COX-1 vs COX-2
[3] = intramuscular administration, single dose of 30 mg

maximum plasma concentration [3] [µg/mL]	time at which maximum plasma concentration appears [3] [min]	time at which maximum plasma concentration appears (intravenous administration) [min]	time at which maximum plasma concentration appears (oral administration, tablets or capsules) [min]	absorption (orally and parenterally)	binding to plasma proteins (plasma proteins) [%]	metabolized via the liver by conjugation ([2]; inactive metabolites) [%]	excreted as a conjugated metabolite ([2]; renal excretion) [%]	excreted as the drug without changes ([2]; renal excretion) [%]	excreted hydroxylated ([2]; renal excretion) [%]	SMILES	appearance of analgesic effect [1]	duration of analgesic effect [1] [h]	peak of analgesic effect [1] [h]	selectivity for COX isoforms (COX-1 and COX-2)
2.2	50	5.4	180	rapidly and completely absorbed						O=C(c1ccccc1)c1ccc2n1CCC2C(=O)O (centres unmarked) [Ketorolac tromethamine]	first half hour	4 to 6	1 to 2	
					99	21	21.9	60.2	11.5	O=C(c1ccccc1)c1ccc2n1CCC2C(=O)O (centres unmarked) [Ketorolac]				not being selective for any of the isoforms
